This assay has as its system ATDC5 cells. Description: Chondrogenesis activity assay in ATDC5 cells (collagen type II induction, immunofluorescence). Type of assay: cell-based, mouse. The note with it: Mus musculus; for EC50: collagen type II induction in ATDC5 cells, concentration reaching 50% of maximum induction; for Emax: maximum percent induction of collagen type II relative to internal reference compound at 10 μM, ATDC5 cells. The essentials:
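Mouse ATDC5 cells in insulin (10 μg/ml)-containing DMEM/F12 differentiation medium with 5% FCS were exposed to compound, typically 40 nM–10 μM at 0.1% DMSO, for 4 days at 37 °C. Intracellular collagen type II was quantified by Alexa Fluor 488 immunostaining with high-content imaging, relative to DMSO and a 10 μM reference compound.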

Each structure is given as a SMILES string.

The term EC50 denotes the concentration at which the effect is half-maximal. The low end stands for higher potency in that assay, the high end for lower potency in that assay. Usually Emax stands for the greatest response seen or fitted, relative to the assay's reference.

As to `Cc1nn(C)c(C)c1-c1cc(Cl)cc2c3ccncc3n(CC(F)(F)F)c12` [Example 138, 6-Chloro-9-(2,2,2-trifluoro-ethyl)-8-(1,3,5-trimethyl-1H-pyrazol-4-yl)-9H-pyrido[3,4-b]indole], the EC50 is over 10000 nM and the Emax was under 20%.

In turn, `FC(F)(F)Cn1c2cnccc2c2cc(Cl)cc(-c3cnn4ccccc34)c21` [Example 139, 6-Chloro-8-pyrazolo[1,5-a]pyridin-3-yl-9-(2,2,2-trifluoro-ethyl)-9H-pyrido[3,4-b]indole] registered an EC50 of over 10000 nM and an Emax of under 20%.

In turn, `Cc1cc(-c2cc(Cl)cc3c4ccncc4n(CC(F)(F)F)c23)n(C)n1` [Example 140, 6-Chloro-8-(2,5-dimethyl-2H-pyrazol-3-yl)-9-(2,2,2-trifluoro-ethyl)-9H-pyrido[3,4-b]indole] returned an EC50 of 910 nM and an Emax of 20 to 50%.

Compound `Clc1cc(-c2cncnc2)c2[nH]c3cnccc3c2c1` [Example 141, 6-Chloro-8-pyrimidin-5-yl-9H-pyrido[3,4-b]indole] showed an EC50 of over 10000 nM and an Emax of under 20%.

Compound `CCn1c2cnccc2c2cc(Cl)cc(-c3ccc(OC)cc3)c21` [Example 142, 6-Chloro-9-ethyl-8-(4-methoxy-phenyl)-9H-pyrido[3,4-b]indole] came in with an EC50 of 520 nM and an Emax of over 80%.

`CCn1c2cnccc2c2cc(Cl)cc(-c3ccc(C)cc3)c21` [Example 143, 6-Chloro-9-ethyl-8-p-tolyl-9H-pyrido[3,4-b]indole] returned an EC50 of 970 nM and a maximal effect (Emax) of 20 to 50%.

On to `FC(F)(F)Cn1c2cnccc2c2cc(Cl)cc(-c3cn[nH]c3)c21` [Example 144, 6-Chloro-8-(1H-pyrazol-4-yl)-9-(2,2,2-trifluoro-ethyl)-9H-pyrido[3,4-b]indole], for which the EC50 amounted to 580 nM and the Emax is under 20%.

Consider `CCn1c2cnccc2c2cc(Cl)cc(-c3ccccc3Cl)c21` [Example 145, 6-Chloro-8-(2-chloro-phenyl)-9-ethyl-9H-pyrido[3,4-b]indole], for which the EC50 worked out at 480 nM and the Emax is under 20%.

For the compound `CCn1c2cnccc2c2cc(Cl)cc(-c3cccc(OC)c3)c21` [Example 146, 6-Chloro-9-ethyl-8-(3-methoxy-phenyl)-9H-pyrido[3,4-b]indole], the EC50 stood at 41 nM and the Emax is under 20%.

`CCn1c2c(-c3ccc(OC)cc3)cc(Cl)cc2c2ccnc(C)c21` [Example 147, 6-Chloro-9-ethyl-8-(4-methoxy-phenyl)-1-methyl-9H-pyrido[3,4-b]indole] yielded an EC50 of 840 nM and an Emax of over 80%.

`CCn1c2c(-c3ccc(Cl)cc3)cc(Cl)cc2c2ccnc(C)c21` [Example 148, 6-Chloro-8-(4-chloro-phenyl)-9-ethyl-1-methyl-9H-pyrido[3,4-b]indole] gave an EC50 of 46 nM and an Emax of over 80%.

Take `Cc1ccc(-c2cc(Cl)cc3c2[nH]c2c(C)nccc23)cc1` [Example 150, 6-Chloro-1-methyl-8-p-tolyl-9H-pyrido[3,4-b]indole]: the midpoint of the response, the EC50, lay at 510 nM and the maximal response (Emax) was over 80%.

Turning to `Cc1nccc2c1[nH]c1c(-c3cnn(C)c3)cc(Cl)cc12` [Example 151, 6-Chloro-1-methyl-8-(1-methyl-1H-pyrazol-4-yl)-9H-pyrido[3,4-b]indole], the midpoint of the response, the EC50, lay at 540 nM and the Emax is 50 to 80%.

`COC(=O)c1cc2c([nH]c3c(-c4ccc(OC)cc4)cc(Cl)cc32)c(C)n1` [Example 152, 6-Chloro-8-(4-methoxy-phenyl)-1-methyl-9H-pyrido[3,4-b]indole-3-carboxylic acid methyl ester] had an EC50 of 360 nM and an Emax of under 20%.

`CCc1nccc2c1[nH]c1c(-c3ccc(OC)cc3)cc(Cl)cc12` [Example 153, 6-Chloro-1-ethyl-8-(4-methoxy-phenyl)-9H-pyrido[3,4-b]indole] came in with an EC50 of 4500 nM and an Emax of 50 to 80%.

On to `Cc1nccc2c1[nH]c1c(-c3cnc(N)nc3)cc(Cl)cc12` [Example 154, 5-(6-Chloro-1-methyl-9H-pyrido[3,4-b]indol-8-yl)-pyrimidin-2-ylamine], for which it took 8800 nM to reach a half-maximal effect (EC50) and the Emax lay in the range of 20 to 50%.

On to `COc1ccc(-c2cc(Cl)cc3c2[nH]c2c(C(F)(F)F)nccc23)cc1` [Example 155, 6-Chloro-8-(4-methoxy-phenyl)-1-trifluoromethyl-9H-pyrido[3,4-b]indole], for which the EC50 is over 3300 nM and the Emax was under 20%.

On to `Cc1nccc2c1[nH]c1c(-c3cnc(-n4cccc4)nc3)cc(Cl)cc12` [Example 156, 6-Chloro-1-methyl-8-(2-pyrrol-1-yl-pyrimidin-5-yl)-9H-pyrido[3,4-b]indole], for which it took 1500 nM to reach a half-maximal effect (EC50) and the Emax is under 20%.

`CNc1ncc(-c2cc(Cl)cc3c2[nH]c2c(C)nccc23)cn1` [Example 157, [5-(6-Chloro-1-methyl-9H-pyrido[3,4-b]indol-8-yl)-pyrimidin-2-yl]-methyl-amine] displayed an EC50 of over 10000 nM and an Emax of 20 to 50%.

As for `Cc1nccc2c1[nH]c1c(-c3ccc(Cl)c(C#N)c3Cl)cc(Cl)cc12` [Example 158], the EC50 amounted to 1900 nM and the Emax is over 80%.

The compound `CC(C)n1cc(-c2cc(Cl)cc3c4ccncc4n(CC(F)(F)F)c23)cn1` [Example 160, 6-Chloro-8-(1-isopropyl-1H-pyrazol-4-yl)-9-(2,2,2-trifluoro-ethyl)-9H-pyrido[3,4-b]indole] showed an EC50 of over 10000 nM and an Emax of under 20%.

For `CCCn1cc(-c2cc(Cl)cc3c4ccncc4n(CC(F)(F)F)c23)cn1` [Example 161, 6-Chloro-8-(1-propyl-1H-pyrazol-4-yl)-9-(2,2,2-trifluoro-ethyl)-9H-pyrido[3,4-b]indole], the EC50 turned out to be 2000 nM and the Emax was over 80%.

The compound `FC(F)(F)Cn1c2cnccc2c2cc(Cl)cc(-c3cnn(Cc4ccccc4)c3)c21` [Example 162, 8-(1-Benzyl-1H-pyrazol-4-yl)-6-chloro-9-(2,2,2-trifluoro-ethyl)-9H-pyrido[3,4-b]indole] registered an EC50 of 590 nM and an Emax of over 80%.

`CC(=O)OCCn1cc(-c2cc(Cl)cc3c4ccncc4n(CC(F)(F)F)c23)cn1` [Example 163, Acetic acid 2-(4-[6-chloro-9-(2,2,2-trifluoro-ethyl)-9H-pyrido[3,4-b]indol-8-yl]-pyrazol-1-yl)-ethyl ester] displayed an EC50 of 690 nM and an Emax of over 80%.

Consider `CCn1c2c(-c3cnn(C)c3)cc(Cl)cc2c2ccnc(C)c21` [Example 164, 6-Chloro-9-ethyl-1-methyl-8-(1-methyl-1H-pyrazol-4-yl)-9H-pyrido[3,4-b]indole], for which a half-maximal response (EC50) required 230 nM and the Emax was over 80%.

Consider `Cn1ccc(-c2cc(Cl)cc3c4ccncc4n(CC(F)(F)F)c23)c1` [Example 165, 6-Chloro-8-(1-methyl-1H-pyrrol-3-yl)-9-(2,2,2-trifluoro-ethyl)-9H-pyrido[3,4-b]indole], for which the EC50 is over 10000 nM and the Emax was under 20%.

(Values after US12275733B2, “Substituted pyrido[3,4-b]indoles for the treatment of cartilage disorders” (Sanofi, priority 2016, dated 2025).)
